Assay results reported in US9951010B2, “Compounds as CRTH2 antagonist and uses thereof” (SUNSHINE LAKE PHARMA CO., LTD., priority 2014, dated 2018).

Experiments:
[1] = tested on: eosinophilia in airway of Wistar rats induced by DK-PGD2; assay: Eosinophilia in airway of Wistar rats induced by DK-PGD2, cell count in BALF; assay type: in vivo; set-up: The total number of white blood cells: unit not given here; settings: for inhibitory effects on the total number of white blood cells and the number of eosinophilic granulocytes: Wistar rats induced by DK-PGD2, compared with OC000459; for Eosinophilic granulocyte C (10^5/ml) / Eosinophilic granulocyte Inhibition rate / The total number of white blood cells: Wistar rats, 10 mg/Kg preventive dose 0.5 h before DK-PGD2, BALF after 24 h
Procedure: Purpose: evaluation of inhibitory effects of the compounds on the total number of white blood cells and eosinophilia in airway of Wistar rats induced by DK-PGD2.
Process: observation on the drug therapeutic effect through preventive medication. Specific operation: After 0.5 h of administering a preventive dose, the administered group and model group were induced eosinophilia with 100 μL of DK-PGD2 by spray injection through airway of rats, the blank group was spray injected with a corresponding dose of normal saline; after 24 h of molding, the rats were killed by bloodletting from aorta abdominalis, exposing the airway and the chest, performing the trachea cannula, and the bronchial pulmonary alveoli were lavaged with 8 mL of 1% BSA in PBS in twice, the bronchoalveolar lavage fluids (BALF) were collected and placed in an ice-bath; after smear, the cells were differential counted. The concentration of DK-PGD2 mother liquor was 10 mg/mL, which was diluted 5 folds to get 2 mg/mL.

[2] = tested on: OVA (ovalbumin)-induced asthmatic model in rats; assay: OVA (ovalbumin)-induced asthmatic model in rats, count of white blood cells in lung lavage; assay type: in vivo; settings: OVA-sensitized rats, gavage once a day for three days, lung lavage solution
Procedure: The experiment purpose was to assess the drug efficacy of the test compound in OVA (ovalbumin)-induced asthmatic model in rats.
Grouping the animal randomly to control group, model group and administered group. At the first, second and third day, the control group was administered with 1 mL of PBS (phosphate buffer solution) by intraperitoneal injection, and the model group and administered group were administered with a sensitization solution (prepared by mixing 6 mL of 1% OVA in phosphate buffer solution and 54 mL of alum solution at a ratio of 1:9) by intraperitoneal injection per day (1 mL per rat).
From the nineteenth day, the administered group was administered with the test compound at a certain dose by gavage, and the control group and model group was administered with the menstruum at a corresponding dose by gavage, once a day for three days. After 1 hour of administering each day, attacking the model group and administered group with 1% OVA in phosphate buffer solution and the control group with phosphate buffer solution for 20 min.
At the twenty-third day, the animals were anesthetized with 1% pentobarbital sodium (60 mg/Kg) by intraperitoneal injection. The blood samples were collected from aorta abdominalis under pentobarbital sodium anaesthesia into EDTA-K2 tubes. After tracheal intubation was performed, the lung of the animals were lavaged with 3 mL of PBS containing 1% FBS (Fetal Bovine Serum) once, and then lavaged with 5 mL of PBS containing 1% FBS at least two times; the volume of the combined lavage solutions were adjusted to 15 mL. The total cells in the lavage solution were counted by using a hemacytometer and a Trypan blue staining method and then white blood cells in the lavage solution were counted differentially.

CRTH2 receptor = target: T1, CRTH2 receptor (Homo sapiens, UniProt Q9Y5Y4); assay: FLIPR detection of inhibitory activity against CRTH2 (CHO-K1/G cells, PGD2 as agonist); assay type: cell-based; settings: CHO-K1/G cells with stable expression of CRTH2 receptor, PGD2 at EC80, FLIPR
T1 construct: expressed in transfected cells; host or cells: CHO-K1/G cells
T1 sequence (Q9Y5Y4 1-395): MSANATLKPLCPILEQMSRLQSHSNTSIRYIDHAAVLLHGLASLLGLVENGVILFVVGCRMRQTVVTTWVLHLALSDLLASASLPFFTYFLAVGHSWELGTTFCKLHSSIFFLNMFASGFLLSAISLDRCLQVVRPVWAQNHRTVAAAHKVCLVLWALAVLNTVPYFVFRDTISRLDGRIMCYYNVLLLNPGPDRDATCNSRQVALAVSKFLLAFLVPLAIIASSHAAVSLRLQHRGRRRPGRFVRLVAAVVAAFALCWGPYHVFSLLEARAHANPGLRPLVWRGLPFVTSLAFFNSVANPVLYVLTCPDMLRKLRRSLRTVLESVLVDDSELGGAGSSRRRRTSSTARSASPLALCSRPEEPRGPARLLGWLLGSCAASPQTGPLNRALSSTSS
Procedure: The test compound was weighed accurately and then dissolved in a suitable amount of DMSO to prepare a stock solution at a concentration of 10 mM; after clear and transparent, the stock solution was subpackaged and cryostoraged at −20° C. for use. Before testing, the test compound was diluted with balanced salt solution (HBSS buffer, containing 4-(2-hydroxyethyl)piperazine-1-ethanesulfonicacid) at a concentration of 20 mM) to 5 times testing concentration.
CHO-K1/G cells with stable expression of CRTH2 receptor were prepared to 5 times testing concentration and seeded into 384-microwell plate, and incubated in an incubator at 37° C./5% CO2. After incubating for 18 hours, to the cells in 384-microwell plate was added 20 μL of dye followed by the addition of 10 μL of prepared test compound solution. And then the cell plate was incubated in the incubator at 37° C./5% CO2 for 1 hour, at last which was balanced at rt for 15 min. After adding 12.5 μL of positive agonist (PGD2) at a concentration of 5 times EC80 to each well of the cell plate, the RFU (fluorescence intensity) value of the test compound was detected.
The data were recorded from ScreenWorks (version 3.1), and collected and analyzed by using Excel and GraphPad Prism 6 software to calculate the values of IC50.

Detection of PK in rats = assay type: in vivo; settings: rat, plasma
Procedure: (§1) The analysis was performed using a 4000 QTRAPP series LC/MS/MS mass spectrometer equipped with Agilent 1200 dual injection pumps, 1290 automatic sampler, column oven and ESI source, detecting by the negative ion MRM mode. Waters Xbridge C18 column was used in the analysis, and the mobile phase consisted of phase (A) (2 mM ammonium formate+0.1% aqueous ammonia solution) and phase (B) (2 mM ammonium formate+0.1% ammonia methanol solution), the flow rate was 0.4 mL/min, column temperature was 40° C., the amount of injection was 3 μL.
(§2) The male Beagle dogs or rats were administered with the compound of the invention by intravenous injection (0.4 mg/Kg) and gavage (1 mg/Kg) respectively, the blood samples were collected at the time point of 0.083, 0.25, 0.5, 1, 2, 4, 6, 8, 10, 24 and 36 h and then centrifuged to obtain plasma samples. The compound concentrations in plasma samples at various times were detected by LC/MS/MS (the method described in biologic example 3), the main pharmacokinetic parameters were calculated, and pharmacokinetic properties of the compounds of the invention in Beagle dogs or rats were evaluated.

[3] = Hygroscopicity test by dynamic vapor sorption; assay type: physicochemical; settings: DVS, 25° C.
Procedure: The hygroscopicity disclosed herein is detected on a DVS INT-Std dynamic vapor and gas absorption analyzer (England Surface Measurement Systems Company) under the humidity ranged from 0% to 95%, the airflow rate is 200 mL/min, the temperature is 25° C., and one test point is provided per rising 5% humidity.
An appropriate amount of test sample was sampled, and the hygroscopicity of the test sample was detected on a dynamic vapor sorption instrument. The experiment results are as shown in table 7; the dynamic vapor sorption profiles of the crystalline form I of the compound represented by Formula (VI) is substantial the same as shown in FIG. 19.
The hygroscopic features and definition of hygroscopic weight gain are summarized in table 8 (deriving from Chinese Pharmacopoeia 2010, appendix XIX J: Guideline on pharmaceutical hygroscopicity test, test conditions: 25° C.±1° C., Relative Humidity 80%).

[4] = Metabolic stability in human liver microsomal; assay type: in vitro ADME; settings: liver microsomes, pH 7.4, 37° C.
Procedure: as §1
(§3) A mixture of the compound and human liver microsomal, a mixture of the compound and dog liver microsomal, or a mixture of the compound and rat liver microsomal were separately incubated at 37° C., under a condition of pH7.4. The sample concentrations at various incubative times were detected by LC/MS/MS (the method described in biologic example 3), speed constant was obtained by plotting “Log [drug concentration]” to “incubative time” in GraphPad Prism 5.01, and the drug half-life and intrinsic clearance rate were calculated; metabolic stability of the compound in liver microsomal were evaluated based on the drug half-life and intrinsic clearance rate.

[5] = Metabolic stability in rat liver microsomal; assay type: in vitro ADME; settings: liver microsomes, pH 7.4, 37° C.
Procedure: as §1, §3

[6] = Detection of PK in Beagle dogs; assay type: in vivo; settings: male, dog, plasma
Procedure: as §1, §2

[7] = Metabolic stability in dog liver microsomal; assay type: in vitro ADME; settings: liver microsomes, pH 7.4, 37° C.
Procedure: as §1, §3

[8] = pH7.4, intrinsic clearance, read-out: Clearance rate
[9] = pH7.4, read-out: Drug half-life

Compound | inhibitory effects on the total number of white blood cells and the number of eosinophilic granulocytes [1] | Eosinophilic granulocyte C (10^5/ml) [1] | Eosinophilic granulocyte Inhibition rate [1] | The total number of white blood cells [1] | Eosinophilic granulocyte Inhibition ratio [2] | Eosinophilic granulocyte Number (×10^5/mL) [2] | Total number of white cells (×10^5/mL) [2] | IC50 (CRTH2 receptor) | AUC(0-inf) (Detection of PK in rats; iv, 0.4 mg/Kg) | AUC(0-t) (Detection of PK in rats; iv, 0.4 mg/Kg) | Cmax (Detection of PK in rats; iv, 0.4 mg/Kg) | half-life (Detection of PK in rats; iv, 0.4 mg/Kg) | AUC(0-inf) (Detection of PK in rats; po, p.o. (gavage), 1 mg/Kg) | AUC(0-t) (Detection of PK in rats; po, p.o. (gavage), 1 mg/Kg) | Cmax (Detection of PK in rats; po, p.o. (gavage), 1 mg/Kg) | half-life (Detection of PK in rats; po, p.o. (gavage), 1 mg/Kg) | other results
Cc1c(C2CCC(NC(=O)c3ccc4ccccc4n3)CC2)c2cc(F)ccc2n1CC(=O)O.Cl (single isomer, unassigned) [Example 6a, 2-(5-fluoro-2-methyl-3-(4-(quinoline-2-carboxamido)cyclohexyl)-1H-indol-1-yl)acetic acid hydrochloride] | stronger than those of OC000459 | 0.0568 ± 0.02^## 10^5/ml | 86.85% | 1.634 ± 0.30 | 33% | 153.75 ×10^5/mL | 247.350 ×10^5/mL | 200 nM | 2780 ng·h/mL | 2680 ng·h/mL | 2020 ng/mL | 1.57 h | 5940 ng·h/mL | 5670 ng·h/mL | 2110 ng/mL | 2.86 h | 
Cc1c(C2CCC(NS(=O)(=O)c3ccc(F)cc3)CC2)c2cc(F)ccc2n1CC(=O)O (single isomer, unassigned) [Example 27b, 2-(5-fluoro-3-(4-(4-fluorophenylsulfonamido)cyclohexyl)-2-methyl-1H-indol-1-yl)acetic acid] | stronger than those of OC000459 | 0.09597 ± 0.04^## 10^5/ml | 76.76% | 1.986 ± 0.28 | 38.55% | 142.17 ×10^5/mL | 277.800 ×10^5/mL | 57.3 nM | 920 ng·h/mL | 883 ng·h/mL | 802 ng/mL | 1.58 h | 1640 ng·h/mL | 1600 ng·h/mL | 631 ng/mL | 1.33 h | 
Cc1c(C2CCN(S(=O)(=O)c3ccc(F)cc3)CC2)c2cc(F)ccc2n1CC(=O)O [Crystalline form I, 2-(5-fluoro-3-(1-((4-fluorophenyl)sulfonyl)piperidin-4-yl)-2-methyl-1H-indol-1-yl)acetic acid] |  |  |  |  |  |  |  |  |  |  |  |  |  |  |  |  | Weigh increase rate % under RH 80% ([3]; RH 80%): 0.293%; Weigh increase rate % under RH 95% ([3]; RH 95%): 0.499%
Cc1c(C2CCN(S(=O)(=O)c3ccc(F)cc3)CC2)c2cc(F)ccc2n1CC(=O)O [Example 24, 2-(5-fluoro-3-(1-((4-fluorophenyl)sulfonyl)piperidin-4-yl)-2-methyl-1H-indol-1-yl)acetic acid] | stronger than those of OC000459 | 0.0804 ± 0.02^## 10^5/ml | 80.77% | 1.881 ± 0.26 | 36.8% | 145.82 ×10^5/mL | 272.775 ×10^5/mL | 148 nM | 1030 ng·h/mL | 991 ng·h/mL | 757 ng/mL | 3.4 h | 1890 ng·h/mL | 1710 ng·h/mL | 393 ng/mL | 4.37 h | CLint scaled [4, 8]: 2.55 mL/min/kg; half-life [4, 9]: 11.4 h; CLint scaled [5, 8]: 13.8 mL/min/kg; half-life [5, 9]: 3 h; AUC(0-inf) ([6]; iv, 0.4 mg/Kg): 5500 ng·h/mL; AUC(0-t) ([6]; iv, 0.4 mg/Kg): 5400 ng·h/mL; Cmax ([6]; iv, 0.4 mg/Kg): 3210 ng/mL; half-life ([6]; iv, 0.4 mg/Kg): 4.72 h; AUC(0-inf) ([6]; po, p.o. (gavage), 1 mg/Kg): 6920 ng·h/mL; AUC(0-t) ([6]; po, p.o. (gavage), 1 mg/Kg): 6600 ng·h/mL; Cmax ([6]; po, p.o. (gavage), 1 mg/Kg): 1160 ng/mL; half-life ([6]; po, p.o. (gavage), 1 mg/Kg): 10.8 h; CLint scaled [7, 8]: 1.37 mL/min/kg; half-life [7, 9]: 42.1 h
Cc1c(C2CCN(S(=O)(=O)c3ccc(F)cc3F)CC2)c2cc(F)ccc2n1CC(=O)O [Example 33, 2-(5-fluoro-3-(1-((2,4-difluorophenyl)sulfonyl)piperidin-4-yl)-2-methyl-1H-indol-1-yl)acetic acid] |  |  |  |  |  |  |  | 80.4 nM | 2500 ng·h/mL | 2440 ng·h/mL | 1300 ng/mL | 4.5 h | 4270 ng·h/mL | 4090 ng·h/mL | 1960 ng/mL | 4.52 h | 
Cc1c(Cc2ccc3ccccc3n2)c2cc(F)ccc2n1CC(=O)O [OC000459, reference compound] |  | 0.1192 ± 0.03^## 10^5/ml | 70.77% | 2.427 ± 0.25 |  |  |  |  |  |  |  |  |  |  |  |  | 
